Measured values published in paper PMC4669789, “Selective inhibition of HDAC8 decreases neuroblastoma growth in vitro and in vivo and enhances retinoic acid-mediated differentiation” (Cell Death & Disease, 2015).

What was measured:
BE(2)-C cells [1] = test: Longer-term colony assay; format: cell-based, human; details: ATRA 10 μM, 18 days, empty vector control cells
Protocol: In six-well plates, 500 cells were seeded and treated as indicated. Viable colonies were stained after a minimum of 10 days with crystal violet. For quantification, the mean intensity of each well of the 8-bit binary picture was measured with ImageJ software (U. S. National Institutes of Health, Bethesda, MD, USA; http://imagej.nih.gov/ij/).

BE(2)-C cells [2] = test: Western blot of histone 4, α-tubulin and SMC3 acetylation; format: cell-based, human; details: working concentrations: 40 μM Cpd2, 4 μM PCI-34051 and PCI-48000
Protocol: Western blot analysis was performed as described previously.[15] For detection of phosphoproteins, PhosStop (Roche, Penzberg, Germany) was added to the lysis buffer.

[3] = test system: neuroblastoma cell culture; test: Intracellular whole lysine acetylation via FACS; format: cell-based, human
Protocol: Cells were collected, washed with PBS and fixed with 2% paraformaldehyde for 15 min at room temperature (RT). Cells were permeabilized by incubation with 50 μg/ml digitonin for 6 min at RT. Cells were incubated with primary antibody overnight at 4 °C. After staining with Cy3-conjugated anti-rabbit antibody, cells were analyzed by FACS using CellQuest software (BD Biosciences, San Jose, CA, USA). The following primary antibodies were used: anti-acetylated lysine (polyclonal; Cell Signaling) and anti-neurofilament-M (clone EP2460; Epitomics, Burlingame, CA, USA).

NMRI Foxn1 nude mice = details: mouse, in vivo; cited from earlier work
nude mice = test: Tolerability during xenograft and long-term treatment (body weight, clinical signs); details: mouse, in vivo
Text: Next, we determined the in vivo efficacy of HDAC8-selective inhibition in neuroblastoma xenograft mouse models. […] One week after tumor cell injection, mice established a palpable tumor mass and the animals were then randomly assigned to treatment and control cohorts.

PBMCs = test: Whole lysine acetylation in PBMC after intraperitoneal administration (FACS); format: in vivo, mouse; details: 150 mg/kg/d; solvent 32.1
Protocol: Both inhibitors were intraperitoneally injected into NMRI Foxn1 nude mice in increasing doses from 40 up to 400 mg/kg per day for 2 × 5 days. Each dose was tested in a cohort of three animals. Resulting MTDs were validated within cohorts of eight animals for each inhibitor. […] As a reference, the blood of 12 untreated NMRI Foxn1 nude mice was analyzed. […] Vorinostat was used as a control for unselective HDAC inhibition.
Whole blood (100 μl) was collected from the femoral vein of untreated athymic NMRI nude mice (HsdCpb:NMRI-Foxn1^nu; Harlan Laboratories Inc.), and respective animals were killed 2 h after intraperitoneal injection of substances. For the analysis of whole acetylation levels, mice were killed at half-life time of the inhibitors. Whole blood with heparin was added to RBC lysis buffer (diluted 1 : 10) (BioLegend, San Diego, CA, USA) at a ratio of 1 : 4. Next, red blood cell lysis was performed according to the manufacturer's instructions. PBMCs were lysed in SDS lysis buffer for western blot or processed for FACS analysis.

## CC1=C(/C=C/C(C)=C/C=C/C(C)=C/C(=O)O)C(C)(C)CCC1 [ATRA, all-trans retinoic acid]
BE(2)-C cells [1]
  colony formation: efficiently reduced the ability of empty vector control cells to form colonies

## COc1ccc(Cn2ccc3ccc(C(=O)NO)cc32)cc1 [PCI-34051]
BE(2)-C cells [2]
  SMC3 acetylation (HDAC8 substrate): increase in acetylation level
  histone 4 acetylation (HDAC1-3 substrate): absence of HDAC1-3 substrate acetylation
  tubulin acetylation (HDAC6 substrate): absence of HDAC6 substrate acetylation

## CC(/C=C/C(=O)NO)=C\[C@@H](C)C(=O)c1ccc(N(C)C)cc1 [TSA, trichostatin A]
[3]; 75nM, solvent 34.4, second experiment
  whole acetyl-lysine mean fluorescent values (Blank-corrected): 92.7
[3]; 150nM, solvent 24.7, IMR-32 cells, 24 h per Figure 1c
  whole acetyl-lysine mean fluorescent values (Blank-corrected): 115.1
[3]; pan-HDAC inhibitor control, compared with HDAC8 inhibitors
  global lysine acetylation: much stronger induction of global lysine acetylation

## O=C(CCCCCCC(=O)Nc1ccccc1)NO [vorinostat, suberoylanilide hydroxamic acid]
NMRI Foxn1 nude mice
  MTD: 150 mg/kg per day
Nude mice
  tolerability at the applied dose: clear signs of toxicity, such as diarrhea and weight loss
PBMCs
  whole acetyl-lysine mean fluorescent values (Blank-corrected), PBMCs: 54.0
